Laboratory results published in patent US20100291543A1, “HOMOGENEOUS IN VITRO FEC ASSAYS AND COMPONENTS” (priority 2007, published 2010).
Values joined by “and” are separate entries in the source; they are usually repeats but may differ in a detail not shown here. Equal entries are not always repeated. Where two headings read alike, the source gives them in different places.

How the values were obtained:
[1] = target: α and ω fragments of TEM-1 beta-lactamase (Escherichia coli, UniProt P62593, A182V/V82I); type: biochemical, E. coli
Experimental: Nitrocefin (Merck, Australia) is a colorimetric substrate of TEM-1 beta-lactamase that changes colour from yellow to red (OD492) following hydrolysis of the β-lactam ring. […] Assays were performed using a 96-well flat bottom cell-culture plate (TPP, Australia). Nitrocefin stock solutions of 200 or 600 μM were prepared in 50 mM NaH2PO4; 150 mM NaCl; 5% DMSO (Sigma, Australia) pH 7. For each 200 μl reaction, 100 μl of the nitrocefin stock was added to 100 μl of enzyme fragments (with or without Ni^2+) in 50 mM NaH2PO4 150 mM NaCl pH 7. Depending on the final signal required, the concentration of enzyme fragments used per well ranged from 40 nM to 200 nM and the final concentration of the Ni^2+ analyte from 100 μM or 200 μM. Assay components were mixed well by pipetting, incubated for 5 minutes at room temperature. Kinetics of the nitrocefin hydrolysis were read at 492 nm using a SpectraMax190 (Molecular Devices, USA).
In an attempt to improve the signal to noise ratio of forced α and ω fragments complementation, the effect of different buffer additives such as solvents, BSA, detergents, protein denaturants and salts were investigated. […] Assays were performed as described herein.
As a low concentration of solvent could partially denature the enzyme fragments, it was investigated whether a small amount of ethanol, isopropanol, methanol, DMSO and acetonitrile would reduce natural fragment complementation and increase the signal to noise ratio. The final concentrations of each solvent tested were 15%, 7.5%, 3.75%, 1.875%, […] and 0%. Kinetics of the complementation assays was read at 492 nm for 30 minutes. The signal/noise ratio was then calculated according to the maximum rate (mOD/min) from SoftmaxPro. […]
Detergent is widely used to reduce protein-protein interaction or ELISA background; using small amount might help preventing the natural fragment complementation by keeping two fragments apart then increased the signal/noise ratio. […] Reading data collecting time was 30 minutes. The signal/noise ratio was then calculated according to the maximum rate (mOD/min) from SoftmaxPro.
To test the effect of protein denaturants on enzyme fragment complementation, nitrocefin activity assays were performed using a matrix of fragment, substrate and NiSO4 concentrations in the presence of urea or guanidine hydrochloride. In preliminary assays, the complementation of 40 nM fragments was tested in concentrations of urea ranging from 2 M to 62.5 mM and in concentrations of GuHCl that ranged from 1M to 31.25 mM. The assay was prepared as follows: 40 nM of each fragment was added to a two-fold dilution series of urea [from 2 M urea 50 mM NaH2PO4 150 mM NaCl pH7 to 62.5 mM urea 50 mM NaH2PO4 150 mM NaCl pH7] or guanidine hydrochloride [from 1 M GuHCl 50 mM NaH2PO4 150 mM NaCl pH7 to 31.25 mM GuHCl 50 mM NaH2PO4 150 mM NaCl pH7] in duplicate. To the first set of wells, NiSO4 was added to a final concentration of 100 μM, whereas the second set contained no NiSO4. The plate was incubated for 5 minutes and the kinetics read at 492 nm using a SpectroMax reader.

human IgG (human) = experiment: surface plasmon resonance, same conditions as BLω-ProG
[2] = type: physicochemical
Experimental: The pellet from a 250 ml overnight induction was lysed in 25 ml of [6 M GuHCl-100 mM NaH2PO4 10 mM Tris pH 8] followed by a 1-hour incubation at 4° C. with shaking at 100 rpm. To enhance lysis, the suspension was sonicated in an ice bath for 5 cycles of 30 seconds on/30 seconds off using a Branson 250 sonifier. After sonication, the lysate was centrifuged at 12,000×g for 30 min (4° C.) and then passed through a 0.2 μm filter to remove cellular debris.
Recombinant His-tagged proteins were purified using a 1 ml HisTrap HP column (Amersham cat. 17-5247-01) under the control of a DuoFlow chromatography system (BioRad cat. 760-0037). The HisTrap column was equilibrated with 10 column volumes (CV) of 8 M urea 100 mM NaH2PO4 10 mM Tris pH 7.5 at a flow rate of 1 ml/min. Cleared E. coli lysates were then loaded onto the column using a Model EP-1 Econopump (BioRad cat. 731-8142) at 0.5 ml/min. The column was washed with 10 CV of 8 M Urea 100 mM NaH2PO4 10 mM Tris pH 6.3. Bound protein was refolded over a 60 CV gradient from 8 M Urea 100 mM NaH2PO4 10 mM Tris 200 mM L-arginine 100 μM GSSG pH 7.5 to 100 mM NaH2PO4 10 mM Tris 200 mM L-arginine 100 μM GSSG pH 7.5 at 1 ml/min. Histidine-tagged proteins were eluted with 10 CV of 250 mM imidazole 50 mM NaH2PO4 150 mM NaCl pH 8, and analysed by PAGE, western blotting, gel filtration and mass spectroscopy.

human IgG = experiment: Surface plasmon resonance binding kinetics for human IgG; settings: SPR
Source text: To confirm that the Protein G moiety of BLω-ProG was functional and suitable for testing in our HA format we assessed its binding kinetics for human IgG using surface plasmon resonance. […] A commercially available recombinant protein G, truncated to eliminate binding to human serum albumin, was included as a positive control.

[3] = system: rabbit hyper-immune serum (anti-HSV-1 peptide); type: biochemical; settings: with BLα-HSV1 (5 nM), hyper-immune serum 1:100
[4] = FPLC gel filtration (aggregation) of purified fragments; type: physicochemical; settings: Purification Strategy: Denaturing CRF Ni-NTA
Source text: In some cases, following affinity purification of the enzyme fragments, pooled eluates were subjected to size exclusion chromatography using a Superdex200GL column (Amersham cat. 17-5175-01) under the control of a DuoFlow chromatography system (BioRad cat. 760-0037). Gel filtration was used for either polishing of purified enzyme fragments (removal of contaminating proteins) or to determine the proportion of monomeric versus aggregated enzyme fragments after on-column refolding. The protocol was as follows: equilibration with 2 CV of 50 mM NaH2PO4 150 mM NaCl, pH7 at 0.6 ml/min; injection of 250-500 μl of sample at 0.6 ml/min; and isocratic flow of 1 CV of 50 mM NaH2PO4 150 mM NaCl, pH 7 at 0.6 ml/min. See FIG. 7 for exemplary results.

[5] = Purification Strategy: Denaturing CRF Ni-NTA

In the case of CCO [ethanol], the “concentration at which optimal signal to noise ratio was achieved” value (from here on “concentration … to noise ratio was achieved”) [1] is reported as 3.75% and the signal/noise ratio [1] is reported as 7.1 and 8.4 and 8.5 and 5.4.

For CO [methanol], the “concentration … to noise ratio was achieved” value ([1]; solvents and detergents) was 7.5%.

With Tween-20 the “concentration … to noise ratio was achieved” value ([1]; solvents and detergents) was 0.15%.

With C[S+](C)[O-] [DMSO] the “concentration … to noise ratio was achieved” value [1] was 15%.

For CC(C)O [isoproponal, isopropanol], the “concentration … to noise ratio was achieved” value ([1]; solvents and detergents) was 3.75%.

In the case of Triton-X100, the “concentration … to noise ratio was achieved” value [1] is reported as 0.3%.

For NC(N)=O [urea], the “concentration … to noise ratio was achieved” value ([1]; denaturant) was 0.5 M.

Molecule “commercially available recombinant protein G, truncated to eliminate binding to human serum albumin” has a Kd (human IgG (human)) of 483 nM.

With c1c[nH]cn1 [imidazole] the “concentration … to noise ratio was achieved” value ([1]; imidazole) was 12.5 mM, the signal/noise ratio ([1]; imidazole final concentration 6.25 mM) was 5.2 and the signal/noise ratio ([1]; imidazole final concentration 12.5 mM) was 5.3. The signal/noise ratio ([1]; imidazole final concentration 25 mM) was 3.7, the signal/noise ratio ([1]; imidazole final concentration 50 mM) was 2.1 and the signal/noise ratio ([1]; imidazole final concentration 100 mM) was 0.8.

For CC#N [acetonitrile], the “concentration … to noise ratio was achieved” value ([1]; solvents and detergents) was 3.75%.

B1: PB15: rearranged full-length (FL) construct of Beta-lactamase, SEQ ID NO: 21 (protein)
chain: MHMHHHHHHEERFPMMSTFKVLLCGAVLSRIDAGQEQLGRRIHYSQNDLVEYSPVTEKHLTDGMTVRELCSAAITMSDNTAANLLLTTIGGPKELTAFLHNMGDHVTRLDRWEPELNEAIPNDERDTTMPVAMATTLRKLLTGELLTLASRQQLIDWMEADKVAGPLLRSALPAGWFIADKSGAGERGSRGIIAALGPDGKPSRIVVIYTTGSQATMDERNRQIAEIGASLIKHWGSGSGHPETLVKVKDAEDQLGARVGYIELDLNSGKILESFRH
modifications: PB15
With B1 the “Purification (solubility)” value [2, 5] was “>+++” and the “Purification (solubility)” value ([2]; Purification Strategy: Native Ni-NTA) was “<+”.

B2: PB15.3: rearranged construct of Beta-lactamase with substitutions M182T, I208T and F230Y, SEQ ID NO: 22 (protein)
chain: MHMHHHHHHEERFPMMSTFKVLLCGAVLSRIDAGQEQLGRRIHYSQNDLVEYSPVTEKHLTDGMTVRELCSAAITMSDNTAANLLLTTIGGPKELTAFLHNMGDHVTRLDRWEPELNEAIPNDERDTTTPVAMATTLRKLLTGELLTLASRQQLTDWMEADKVAGPLLRSALPAGWYIADKSGAGERGSRGIIAALGPDGKPSRIVVIYTTGSQATMDERNRQIAEIGASLIKHWGSGSGHPETLVKVKDAEDQLGARVGYIELDLNSGKILESFRH
modifications: PB15.3 (M182T, I208T, F230Y)
In the case of B2, the “Purification (solubility)” value [2, 5] is reported as “>+++”.

B3: BLω-ProG: omega fragment fused via (G4S)3 linker to C2 domain of protein G, SEQ ID NO: 83 (protein)
chain: MHHHHHHGGGGSGSTYKLVINGKTLKGETTTEAVDAATAEKVFKQYANDNGVDGEWTYDDATKTFTVTETSGGGGSGGGGSGGGGSASELLTLASRQQLIDWMEADKVAGPLLRSALPAGWFIADKSGAGERGSRGIIAALGPDGKPSRIVVIYTTGSQATMDERDRQIAEIGASLIKHW
modifications: Protein G subunit omega reporter fragment displaying sequence of BLaProGconstruct
With B3 the rate of association (human IgG) was “slower rate of association than the C2 domain”, the rate of dissociation (human IgG) was “slower rate of dissociation” and the Kd (human IgG; read-out: dissociation constant (KD)) was 81 nM. The level of activity [3] was “highest level of activity”.

B4: PB11.2: alpha fragment construct containing substitutions V74T and M182T, SEQ ID NO: 6 (protein)
chain: MHPETLVKVKDAEDQLGARVGYIELDLNSGKILESFRPEERFPMMSTFKTLLCGAVLSRIDAGQEQLGRRIHYSQNDLVEYSPVTEKHLTDGMTVRELCSAAITMSDNTAANLLLTTIGGPKELTAFLHNMGDHVTRLDRWEPELNEAIPNDERDTTTPVAMATTLRKLLTGGGGGSHHHHHH
modifications: PB11.2 construct
In the case of B4, the “FPLC (aggregation)” value [4] is reported as “<+”.
